This is an account of results in the NIST ThermoML archive (doi:10.1016/j.fluid.2015.03.040).

The structures appear in SMILES notation. Numbers after ± are expanded uncertainties.

The conditions of data set [1]: 298.15 K; for surface tension liquid-gas: Maximal bubble pressure; for mass density: 101.33 kPa, Liquid, Vibrating tube method.
Data set [2] is described as follows: refractive index (Na D-line) (dimensionless). To be noted: 298.15 K; 101.33 kPa; Liquid; Standard Abbe refractometry.
The conditions of data set [3]: 101 kPa, Liquid mixture 1, Drop volume.

Usually surface tension liquid-gas stands for the force per length acting along the surface. Broadly, the mass density is mass per unit of volume. For orientation: refractive index means the speed of light in vacuum divided by its phase velocity in the sample. `CCOC(C)(C)C` [2-ethoxy-2-methylpropane]: in data set [1], the surface tension liquid-gas is reported as 19.73 ± 0.17 mN/m and the mass density is 736.65 ± 0.14 kg/m3. Moreover, in data set [2], the refractive index is listed as 1.37468 ± 0.00031.

Take `CCOC(C)(C)C` [2-ethoxy-2-methylpropane] + O: the interfacial tension amounted to 14 ± 0.11 mN/m in data set [3] (278.15 K); 15.5 ± 0.12 mN/m in data set [3] (288.15 K); 16.6 ± 0.12 mN/m in data set [3] (298.15 K); 17.8 ± 0.13 mN/m in data set [3] (308.15 K); 18.7 ± 0.13 mN/m in data set [3] (318.15 K); 19.3 ± 0.14 mN/m in data set [3] (328.15 K).

`CCC(C)(C)OC` [2-methoxy-2-methylbutane]: in data set [1], the surface tension liquid-gas turned out to be 20.3 ± 0.17 mN/m and the mass density amounted to 765.91 ± 0.14 kg/m3. Also, in data set [2], the refractive index was 1.38736 ± 0.00032.

For `CCC(C)(C)OC` [2-methoxy-2-methylbutane] + O, the interfacial tension in data set [3] (278.15 K) is listed as 12.2 ± 0.1 mN/m; in data set [3] (288.15 K), 13.2 ± 0.11 mN/m; in data set [3] (298.15 K), 14.5 ± 0.11 mN/m; in data set [3] (308.15 K), 15.5 ± 0.12 mN/m; in data set [3] (318.15 K) it was 16.3 ± 0.12 mN/m; in data set [3] (328.15 K), 17 ± 0.13 mN/m. Moreover, the interfacial tension in data set [3] (338.15 K) came out at 17.5 ± 0.13 mN/m.

`COC(C)(C)C` [2-methoxy-2-methylpropane]: in data set [1], the surface tension liquid-gas came to 17.5 ± 0.16 mN/m and the mass density is given as 735.31 ± 0.14 kg/m3. Besides, the refractive index in data set [2] was 1.36764 ± 0.00031.

On to `COC(C)(C)C` [2-methoxy-2-methylpropane] + O, for which the interfacial tension in data set [3] (278.15 K) is listed as 7.8 ± 0.08 mN/m; in data set [3] (288.15 K), 8.83 ± 0.09 mN/m; in data set [3] (298.15 K), 9.8 ± 0.09 mN/m; in data set [3] (308.15 K), 10.8 ± 0.1 mN/m; in data set [3] (318.15 K), 11.7 ± 0.1 mN/m.

In the case of `CCCCO` [butan-1-ol] + O, the interfacial tension in data set [3] (278.15 K) was 1.49 ± 0.05 mN/m; in data set [3] (288.15 K), 1.63 ± 0.05 mN/m; in data set [3] (298.15 K), 1.68 ± 0.05 mN/m; in data set [3] (308.15 K), 1.69 ± 0.05 mN/m; in data set [3] (318.15 K), 1.63 ± 0.05 mN/m; in data set [3] (328.15 K) it was 1.54 ± 0.05 mN/m. For the same molecule, the interfacial tension in data set [3] (338.15 K) came out at 1.39 ± 0.05 mN/m; in data set [3] (348.15 K), 1.2 ± 0.05 mN/m; in data set [3] (358.15 K) it was 1.04 ± 0.05 mN/m.

As to `CC(C)OC(C)C` [diisopropyl ether], in data set [1], the surface tension liquid-gas is listed as 16.9 ± 0.16 mN/m and the mass density amounted to 718.89 ± 0.15 kg/m3. In addition, the refractive index in data set [2] amounted to 1.3665 ± 0.00031.

Regarding `CC(C)OC(C)C` [diisopropyl ether] + O, the interfacial tension in data set [3] (278.15 K) is 15.2 ± 0.12 mN/m; in data set [3] (288.15 K), 16.3 ± 0.12 mN/m; in data set [3] (298.15 K), 17.7 ± 0.13 mN/m; in data set [3] (308.15 K), 18.7 ± 0.13 mN/m; in data set [3] (318.15 K), 19.7 ± 0.14 mN/m; in data set [3] (328.15 K), 21.1 ± 0.15 mN/m.

On to `CCCCCCCO` [heptan-1-ol], for which, in data set [1], the surface tension liquid-gas is listed as 27.4 ± 0.21 mN/m and the mass density was found to be 818.93 ± 0.11 kg/m3. Besides, the refractive index in data set [2] is recorded as 1.42384 ± 0.00031.

Take `CCCCCCCO` [heptan-1-ol] + O: the interfacial tension came out at 6.61 ± 0.08 mN/m in data set [3] (278.15 K); 7.09 ± 0.08 mN/m in data set [3] (288.15 K); 7.4 ± 0.08 mN/m in data set [3] (298.15 K); 7.56 ± 0.08 mN/m in data set [3] (308.15 K); 7.73 ± 0.08 mN/m in data set [3] (318.15 K); 7.96 ± 0.08 mN/m in data set [3] (328.15 K). For the same molecule, the interfacial tension is recorded as 7.9 ± 0.08 mN/m in data set [3] (338.15 K), 7.82 ± 0.08 mN/m in data set [3] (348.15 K) and 7.74 ± 0.08 mN/m in data set [3] (358.15 K).

On to `CCCCCCO` [hexan-1-ol] + O, for which the interfacial tension in data set [3] (278.15 K) worked out at 5.77 ± 0.07 mN/m; in data set [3] (288.15 K), 6.06 ± 0.07 mN/m; in data set [3] (298.15 K) it was 6.29 ± 0.08 mN/m; in data set [3] (308.15 K), 6.16 ± 0.08 mN/m; in data set [3] (318.15 K) it was 6.18 ± 0.08 mN/m; in data set [3] (328.15 K), 6.29 ± 0.08 mN/m. Also, the interfacial tension worked out at 6.14 ± 0.08 mN/m in data set [3] (338.15 K) and 6 ± 0.07 mN/m in data set [3] (348.15 K).

On to `CCCCCCCCO` [octan-1-ol], for which, in data set [1], the surface tension liquid-gas stood at 28 ± 0.2 mN/m and the mass density was found to be 822.25 ± 0.11 kg/m3. Moreover, the refractive index in data set [2] was 1.42884 ± 0.00031.

Turning to `CCCCCCCCO` [octan-1-ol] + O, the interfacial tension in data set [3] (278.15 K) was found to be 6.99 ± 0.08 mN/m; in data set [3] (288.15 K) it was 7.53 ± 0.08 mN/m; in data set [3] (298.15 K), 7.97 ± 0.08 mN/m; in data set [3] (308.15 K), 8.41 ± 0.09 mN/m; in data set [3] (318.15 K), 8.62 ± 0.09 mN/m; in data set [3] (328.15 K), 8.67 ± 0.09 mN/m. In addition, the interfacial tension in data set [3] (338.15 K) was 8.81 ± 0.09 mN/m.

For the molecule `CCCCCO` [pentan-1-ol], in data set [1], the surface tension liquid-gas was determined as 24.7 ± 0.2 mN/m and the mass density was determined as 810.89 ± 0.12 kg/m3. The refractive index in data set [2] is listed as 1.40941 ± 0.00032.

Regarding `CCCCCO` [pentan-1-ol] + O, the interfacial tension in data set [3] (278.15 K) is 3.96 ± 0.07 mN/m; in data set [3] (288.15 K) it was 4.24 ± 0.07 mN/m; in data set [3] (298.15 K) it was 4.35 ± 0.07 mN/m; in data set [3] (308.15 K), 4.5 ± 0.07 mN/m; in data set [3] (318.15 K), 4.51 ± 0.07 mN/m; in data set [3] (328.15 K), 4.43 ± 0.07 mN/m. Moreover, the interfacial tension in data set [3] (338.15 K) is reported as 4.37 ± 0.07 mN/m; in data set [3] (348.15 K), 4.21 ± 0.07 mN/m; in data set [3] (358.15 K) it was 3.94 ± 0.07 mN/m.

As to `C1CCOCC1` [tetrahydropyran], in data set [1], the surface tension liquid-gas was found to be 28 ± 0.21 mN/m and the mass density was found to be 879.44 ± 0.09 kg/m3. Moreover, in data set [2], the refractive index was 1.42004 ± 0.00031.

Regarding `C1CCOCC1` [tetrahydropyran] + O, the interfacial tension in data set [3] (278.15 K) is on record as 4.64 ± 0.07 mN/m; in data set [3] (288.15 K), 5.19 ± 0.07 mN/m; in data set [3] (298.15 K), 5.78 ± 0.07 mN/m; in data set [3] (308.15 K) it was 6.35 ± 0.08 mN/m; in data set [3] (318.15 K), 6.75 ± 0.08 mN/m; in data set [3] (328.15 K), 7.28 ± 0.08 mN/m. The interfacial tension in data set [3] (338.15 K) is reported as 7.45 ± 0.08 mN/m.

For `O` [water], in data set [1], the surface tension liquid-gas stood at 71.94 ± 0.41 mN/m and the mass density was found to be 996.7 ± 0.04 kg/m3. For the same molecule, the refractive index in data set [2] amounted to 1.33374 ± 0.00031.
